We go through two compounds from patent US20210076683A1, “USE OF BACILLUS METHYLOTROPHICUS AS A STIMULANT OF PLANT GROWTH AND BIOLOGICAL CONTROL MEANS, AND ISOLATES OF SAID SPECIES” (UNIVERSIDAD DE GRANADA, priority 2014, published 2021).

Series [1] in a line: Surfactant activity of the lipopeptides (CMC, surface tension). Type of series: physicochemical. The conditions noted are these: at the CMC 0.0025%. The source says:
After extracting the lipopeptides following the method of Cooper et al. 1981, a yield of 0.12 g/l and 0.10 g/l of culture was obtained for strains XT1 and XT2, respectively. The type strain produced 0.6 g/l. Lipopeptide production has not been described in the case of the Bacillus strain of the commercial preparation Botrybel. More specifically, in addition to surfactin, strain XT1 object of the present invention produces other surfactant lipopeptides such as fengycin and lichenysin.
The cellular dry weight (CDW) of strains XT1, XT2 and of type strain is 2.7 g/l, 2.5 g/l and 2.9 g/l, respectively. In the case of strain XT1, the critical micelle concentration (CMC) is 0.0025% (0.025 mg/ml); a surface tension of 29.7 mN/m was obtained with this value. In the case of the surfactin produced by B. subtilis and marketed by Sigma®, values of 26.7 mN/m at the same CMC were obtained. In other words, strain XT1 produces very active lipopeptides surfactants showing activity similar to the surfactin available on the market.

In series [2] the test system is Anthocoris nemoralis. Description: Mortality by ingestion in Anthocoris nemoralis. The note with it: observed 6 days; cultures 5×10^8 CFU/ml, surfactants and Tween 80 1/1000; water control 10.

*1 amine or outer side, *2 acyl side, *3 side chain or, on linkers, in order; H or OH if unused. Where a SMILES comes first, the peptide text is derived from it. Bridges are numbered along the chain shown (N, C = ends). [ ]: non-standard residue; d: D form. X1 = CC(C)CCCCCCCCC[C@H](CC(=O)[*:1])O[*:2]

In turn, `CC(C)CCCCCCCCC[C@@H]1CC(=O)N[C@@H](CCC(=O)O)C(=O)N[C@@H](CC(C)C)C(=O)N[C@H](CC(C)C)C(=O)N[C@@H](C(C)C)C(=O)N[C@@H](CC(=O)O)C(=O)N[C@H](CC(C)C)C(=O)N[C@@H](CC(C)C)C(=O)O1` [surfactin] (EL[dL]VD[dL]L; linker N-C via X1) showed a surface tension in series [1] of 26.7 mN/m.

Take Tween 80: in series [2], the Mortality by ingestion is recorded as 5 percentage of individuals.

Usually surface tension stands for the work needed to enlarge the surface of a liquid by unit area.
